One data set concerns the target T1, MATE1 (Homo sapiens, UniProt Q96FL8).
T1 sequence (Q96FL8 1-570): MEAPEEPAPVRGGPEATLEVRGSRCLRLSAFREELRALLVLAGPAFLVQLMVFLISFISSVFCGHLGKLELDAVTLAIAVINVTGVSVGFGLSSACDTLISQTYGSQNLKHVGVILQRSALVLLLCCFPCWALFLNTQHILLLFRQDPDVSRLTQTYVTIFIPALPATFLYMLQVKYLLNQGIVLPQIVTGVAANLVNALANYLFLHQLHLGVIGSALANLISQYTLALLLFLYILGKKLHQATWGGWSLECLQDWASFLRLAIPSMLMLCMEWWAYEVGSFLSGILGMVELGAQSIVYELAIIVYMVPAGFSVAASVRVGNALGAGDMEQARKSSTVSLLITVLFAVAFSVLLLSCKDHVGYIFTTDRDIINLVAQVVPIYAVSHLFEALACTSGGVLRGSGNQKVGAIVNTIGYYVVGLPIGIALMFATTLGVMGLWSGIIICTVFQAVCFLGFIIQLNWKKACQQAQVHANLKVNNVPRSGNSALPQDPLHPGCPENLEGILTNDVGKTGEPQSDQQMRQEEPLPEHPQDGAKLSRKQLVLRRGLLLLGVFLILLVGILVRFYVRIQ
Briefly: Intracellular accumulation and transcellular transport in MDCK-MATE1 monolayers. Particulars: for Intracellular accumulation in MDCK-MATE1 cells compared to MDCK-VC cells / Transcellular basal to apical transport in MDCK-MATE1 cells vs MDCK-VC cells: 10 μM basal, 60 minutes. Here is the method:
(§1) The intracellular accumulation and transcellular, basal to apical transport experiments were performed as previously described in monolayers of polarized single-transfected (MDCK-OCT2, MDCK-MATE1) and double-transfected (MDCK-OCT2-MATE1) MDCK cells, MDCK control cells (MDCK-VC), or Caco-2 cells.[22] In brief, cell monolayers were grown in cell culture inserts on porous membranes. For MDCK-VC, MDCK-OCT2 and Caco-2, 5 × 10^5 cells were used per well; for MDCK-OCT2-MATE1, 6 × 10^5 cells were used, and for MDCK-MATE1, 8 × 10^5 cells were used per well. Cells were grown to confluence for 72 hours, induced with 10 mM sodium butyrate 48 hours after seeding for 24 hours (MDCK only), and subsequently used for transport experiments.
(§2) In general, after the cell culture medium was removed from both sides of the monolayers, cells were washed at 37 °C with transport buffer of the same composition as described in the previous section. Experiments were started by replacing the medium in the basal compartment with medium containing the putative biomarkers or [^3H]-labeled positive control substrates. The pH of the buffer on the basal side was 7.3 and 6.5 on the apical side for MDCK cells, whereas it was 7.3 on either side for Caco-2 cells. Cells were incubated at 37 °C and the buffer from the apical compartment was taken after 60 minutes for MDCK cells and after 240 minutes for Caco-2 cells. In case of Caco-2 cells, endogenous P-gp was inhibited by adding 2 μM of valspodar to the basal compartment. To measure the cellular accumulation of the test compounds, the remaining medium was removed at the end of the incubation period and the cell monolayers were rapidly rinsed 3 times with ice-cold 0.9% NaCl in water. Filters were detached from the chambers and placed into 500 μL of 80% MeOH containing the aforementioned recovery standards to lyse cells for subsequent LC-MS analysis or into 600 μL of 0.2% SDS (control experiments only). In the control experiments, the radioactivity of the collected apical medium and the solubilized cell monolayers and protein concentrations of the cell lysates were measured in the same way as described for the experiments with HEK cells.
(§3) The intracellular background of all 5 compounds in HEK cells at the beginning of the uptake experiments was investigated 48 hours after seeding without incubation with transport buffer (ie, 0 minutes). […] Then, cells were lysed with ice-cold 80% MeOH containing the aforementioned recovery standards. In addition, the impact of a 5-minute incubation period with transport buffer without added substance was investigated.

Another data set deals with T2, human OCT2 (Homo sapiens, UniProt O15244).
T2 sequence (O15244 1-555): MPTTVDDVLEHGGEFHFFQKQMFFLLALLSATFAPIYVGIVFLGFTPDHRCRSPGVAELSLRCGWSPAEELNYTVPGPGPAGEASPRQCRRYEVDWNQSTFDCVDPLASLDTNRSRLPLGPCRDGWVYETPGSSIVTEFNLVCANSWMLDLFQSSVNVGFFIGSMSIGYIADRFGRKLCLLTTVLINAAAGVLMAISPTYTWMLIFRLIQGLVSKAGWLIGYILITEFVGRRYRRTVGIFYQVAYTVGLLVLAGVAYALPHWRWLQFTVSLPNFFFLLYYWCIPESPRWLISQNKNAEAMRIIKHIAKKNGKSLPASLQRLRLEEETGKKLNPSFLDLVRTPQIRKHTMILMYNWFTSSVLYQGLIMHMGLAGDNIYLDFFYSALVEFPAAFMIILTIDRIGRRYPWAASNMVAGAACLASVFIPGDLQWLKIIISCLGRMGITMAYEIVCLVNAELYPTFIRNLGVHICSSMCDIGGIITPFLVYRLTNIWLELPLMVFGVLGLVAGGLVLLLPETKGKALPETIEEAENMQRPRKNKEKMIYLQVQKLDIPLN
Briefly: Intracellular accumulation and transcellular transport in MDCK-OCT2 monolayers. The class given is in vitro ADME. Further details: expressed in transfected cells. Conditions: for Intracellular concentration in MDCK-OCT2 cells in comparison to MDCK-VC cells: 10 μM basal, 60 minutes. Here is the method: as §1, §2, §3

A further data set addresses T3, human OAT3 (Homo sapiens, UniProt Q8TCC7).
T3 sequence (Q8TCC7 1-542): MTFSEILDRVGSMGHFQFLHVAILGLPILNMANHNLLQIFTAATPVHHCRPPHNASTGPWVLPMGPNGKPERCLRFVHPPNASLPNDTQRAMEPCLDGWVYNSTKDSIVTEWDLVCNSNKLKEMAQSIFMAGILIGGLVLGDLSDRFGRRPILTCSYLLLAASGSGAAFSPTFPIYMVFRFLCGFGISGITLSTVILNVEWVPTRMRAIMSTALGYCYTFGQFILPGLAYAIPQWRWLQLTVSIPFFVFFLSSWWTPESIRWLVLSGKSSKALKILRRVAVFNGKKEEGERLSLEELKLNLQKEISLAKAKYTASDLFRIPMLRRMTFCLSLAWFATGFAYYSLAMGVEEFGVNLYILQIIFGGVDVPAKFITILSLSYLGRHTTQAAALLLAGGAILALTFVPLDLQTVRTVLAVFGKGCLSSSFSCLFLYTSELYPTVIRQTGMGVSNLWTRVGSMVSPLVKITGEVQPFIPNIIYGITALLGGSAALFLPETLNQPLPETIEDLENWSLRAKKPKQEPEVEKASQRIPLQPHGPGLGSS
Briefly: Uptake assay in HEK-OAT3 vs HEK-VC cells. Conditions: for In Vitro OAT3 (substrate class): HEK cells.

Setting [1] is: 60 minutes without added substance.

The structures appear in SMILES notation.

Description for human OAT3: Using both plasmids, stably transfected HEK cells overexpressing human OAT1 or OAT3 were established as described.[24] HEK cell clones with the highest expression of the SLC22A6 or the SLC22A8 mRNA were selected by quantitative reverse-transcription polymerase chain reaction and functionally characterized by standardized uptake assays using PAH (30 μM) or E3S (1 μM) as prototypic substrates for OAT1 (HEK-OAT1) or OAT3 (HEK-OAT3), respectively, as described below.
Uptake assays into HEK cells stably overexpressing transport proteins and their respective VC were performed as previously described with minor modifications.[19] In brief, cells were seeded in poly-D-lysine–coated (0.1 mg/mL) 12-well plates with a density of 7 × 10^5 cells per well. Twenty-four hours after seeding, cells were induced with 10 mM sodium butyrate to enhance protein expression. Transport experiments were performed 48 hours after seeding. Cells were washed once with transport buffer at 37 °C. Afterward, cells were incubated with transport buffer containing (putative) substrates at the desired concentration at 37 °C for 5 minutes. Inhibition of OCT2/MATE1-mediated transport was investigated by adding 50 μM of cimetidine to the above-mentioned transport buffer containing putative substrates. A mixture of unlabeled and [^3H]-labeled substrate was used for control experiments. The buffer for the transport experiments contained 142 mM NaCl, 5 mM KCl, 1 mM K2HPO4, 1.2 mM MgSO4, 1.5 mM CaCl2, 5 mM glucose, and 12.5 mM HEPES. The pH value was set to 7.3, except for HEK-MATE1 cells and their respective VC, in which pH was set to 8.0.
At the end of the incubation period, cells were put on ice, the transport buffer was removed, and cells were rinsed thrice with ice-cold 0.9% NaCl in water. Then, cells were lysed with 700 μL of an ice-cold mixture of MeOH and water (80:20) containing the recovery standards [^2H5]-tryptophan (1 μg/mL) and [^2H3]-N8-acetylspermidine (0.1 μg/mL). Subsequently, lysates were analyzed with liquid chromatography coupled to tandem mass spectrometry (LC-MS).
Data are presented in percentage of respective controls (which were set to 100%) or in pmol × mg protein^–1 × min^–1 for concentration-dependent transport as mean ± SEM. All results were normalized to the mean protein concentrations of the cell lysates in the respective control experiments.

Consider `C[N+](C)(C)CCCCC(=O)[O-]` [5-Amino valeric acid betaine, 5-amino valeric acid betaine], for which, on MATE1, the “Intracellular accumulation in MDCK-MATE1 cells compared to MDCK-VC cells” value is given as “significant reduction” and the “Transcellular basal to apical transport in MDCK-MATE1 cells vs MDCK-VC cells” value was “not statistically significant”. Besides, the “Intracellular background in MDCK-MATE1 cells” value on MATE1 (setting [1]) was “no 5-amino valeric acid betaine could be detected”. The “Intracellular concentration in MDCK-OCT2 cells in comparison to MDCK-VC cells” value (from here on “Intracellular concentration”) on human OCT2 was “significantly increased”. Also, the “Intracellular background in MDCK-OCT2 cells vs MDCK-VC cells” value on human OCT2 (setting [1]) was “much lower”. Further, the “In Vitro OAT3 (substrate class)” value on human OAT3 is “-”.

For `NCCc1ccc(O)cc1` [Tyramine, tyramine], the “Intracellular accumulation in MDCK-MATE1 cells compared to MDCK-VC cells” value at MATE1 is “no significant difference”. For the same compound, the “Intracellular concentration” value at human OCT2 is listed as “significantly increased”. For the same compound, on human OAT3 (10 μM substrate, 5 minutes), the “Uptake ratio in HEK-OAT3 cells compared to HEK-VC cells” value is given as 230%. In addition, the “Uptake ratio for OAT3 (HEK-OAT3 vs HEK-VC)” value at human OAT3 (5 minutes) is “above 2 fold”. On human OAT3, the “In Vitro OAT3 (substrate class)” value is 0 (significant uptake in HEK cells, but less than 300% of respective control cells or significant reduction of transcellular transport in Caco-2 cells, but reduction not below 50% of respective control without valspodar).

Consider `NCCc1c[nH]c2ccc(O)cc12` [Serotonin, serotonin], for which, at MATE1, the “Intracellular accumulation in MDCK-MATE1 cells compared to MDCK-VC cells” value is given as “no significant difference” and the “Transcellular basal to apical transport in MDCK-MATE1 cells vs MDCK-VC cells” value is “considerably increased”. At human OCT2, the “Intracellular concentration” value is listed as “significantly increased”. Moreover, the “Uptake ratio in HEK-OAT3 cells compared to HEK-VC cells” value at human OAT3 (100 μM substrate, 5 minutes) is recorded as 186%. In addition, the “In Vitro OAT3 (substrate class)” value on human OAT3 was 0 (significant uptake in HEK cells, but less than 300% of respective control cells or significant reduction of transcellular transport in Caco-2 cells, but reduction not below 50% of respective control without valspodar).

`Cn1cnc(CCN)c1` [1-Methylhistamine, 1-methylhistamine]: the “Intracellular accumulation in MDCK-MATE1 cells compared to MDCK-VC cells” value on MATE1 is “no significant difference”. Further, the “In Vitro OAT3 (substrate class)” value on human OAT3 was “-”.

Source of the values: article PMC12799524, “Putative new biomarkers for renal transporter-mediated drug-drug interactions: Characterization as substrates of organic cation transporter 2, multidrug and toxin extrusion protein 1, and other important drug transporters” (Drug Metabolism and Disposition, 2025).
